# What was measured:
# [1] = biological target: T1, HMG CoA reductase (Rattus norvegicus, UniProt P51639); experiment: Inhibition of HMG CoA reductase catalysis in rat liver microsomes (radioactive assay of mevalonate production); format: biochemical; settings: for IC50: pH 6.8, 37° C., 15-min. incubation, four concentrations in triplicate, 14C-HMG CoA substrate
# T1 construct: measured with rat liver microsomes; from tissue; host or cells: rat liver microsomes
# T1 sequence (P51639 1-887): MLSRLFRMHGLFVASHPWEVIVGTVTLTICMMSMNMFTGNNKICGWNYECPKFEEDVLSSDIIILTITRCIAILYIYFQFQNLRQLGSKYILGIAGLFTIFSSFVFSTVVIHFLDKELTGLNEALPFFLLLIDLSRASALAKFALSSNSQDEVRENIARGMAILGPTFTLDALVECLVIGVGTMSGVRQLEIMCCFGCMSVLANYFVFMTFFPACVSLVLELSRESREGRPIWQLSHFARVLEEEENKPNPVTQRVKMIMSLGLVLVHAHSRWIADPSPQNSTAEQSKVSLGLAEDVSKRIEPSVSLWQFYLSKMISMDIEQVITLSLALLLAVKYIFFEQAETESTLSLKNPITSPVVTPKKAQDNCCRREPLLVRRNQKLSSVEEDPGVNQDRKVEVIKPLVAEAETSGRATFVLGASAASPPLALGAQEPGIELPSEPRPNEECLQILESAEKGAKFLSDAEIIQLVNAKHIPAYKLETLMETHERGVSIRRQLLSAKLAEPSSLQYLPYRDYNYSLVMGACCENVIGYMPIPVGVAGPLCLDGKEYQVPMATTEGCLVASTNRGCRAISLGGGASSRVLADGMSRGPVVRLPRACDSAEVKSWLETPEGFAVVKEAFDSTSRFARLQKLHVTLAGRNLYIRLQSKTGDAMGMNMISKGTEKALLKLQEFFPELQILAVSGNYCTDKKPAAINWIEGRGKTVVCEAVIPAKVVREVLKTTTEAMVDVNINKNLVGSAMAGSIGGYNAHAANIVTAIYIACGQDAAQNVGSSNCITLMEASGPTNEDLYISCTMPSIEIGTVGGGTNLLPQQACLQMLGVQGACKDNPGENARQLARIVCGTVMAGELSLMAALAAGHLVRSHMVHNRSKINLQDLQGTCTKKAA
# Description: The antihypercholesterolemic activity of each novel compound was measured using the following test. The potency of compactin and each analog as an inhibitor of HMG CoA reductase catalysis was measured with rat liver microsomes. […] Four concentrations of each compound ranging over four appropriate orders of magnitude were tested. The effect on the initial velocity of mevalonate production was determined in a radioactive assay system. […] All components but the ^14 C-HMG CoA were preincubated at 37° C. for 10 min. The inhibitor in 10 μL of DMSO was then added (control samples received DMSO only) and a 15-min. incubation was initiated by the addition of substrate. Catalysis was terminated with 33% aqueous KOH (50 μL). After 30 min., 25 μL of aqueous 0.05% bromophenol, 70000 dpm of (5-^3 H)-mevalono-lactone in 25 μL of H2 O (recovery standard) and 90 μL of 5 N aqueous HCl were added. […] Quantities of collected ^14 C-mevalonate mevalonate were corrected for ^3 -mevalonate recovery before conversion to catalytic rates. Each inhibitor concentration was assayed in triplicate and conversion of (S)-HMG Coenzyme A to product was always less than 20%. Rates in the presence of inhibitors were compared to control rates to generate % inhibition values. When % inhibition was plotted against inhibitor concentration, the resulting curve provided an IC50 value for the inhibitor in question, IC50 being defined as the concentration required to inhibit the enzyme by 50% of control.
# [2] = tested on: HMG CoA reductase; settings: background, U.S. Pat. Nos. 4,049,495, 4,137,332, 3,983,140; cited from earlier work
# [3] = tested on: biosynthesis of cholesterol; settings: background; cited from earlier work
SMILES,IC50 [1] [nM],inhibition of HMG CoA reductase (in words) [2],inhibition of the biosynthesis of cholesterol (in words) [3],"antihypercholesterolemic activity (HMG CoA reductase inhibition, in words) [1]"
CC[C@H](C)C(=O)O[C@H]1CCC=C2C=C[C@H](C)[C@H](CC[C@@H]3C[C@@H](O)CC(=O)O3)[C@H]21 [Formula 1],9,display utility as inhibitors of the enzyme hydroxymethylglutaryl coenzyme A reductase,potent as inhibitors of the biosynthesis of cholesterol,–
CC[C@H](C)C(=O)O[C@H]1C[C@@H](C)C=C2C=C[C@H](C)[C@H](CC[C@@H]3C[C@@H](O)CC(=O)O3)[C@H]21 [Formula 2],–,display utility as inhibitors of the enzyme hydroxymethylglutaryl coenzyme A reductase,potent as inhibitors of the biosynthesis of cholesterol,–
CC[C@H](C)C(=O)O[C@H]1CCC=C2C=C[C@H](C)[C@H](/C=C/C(=O)C[C@@H](O)CC(=O)O)[C@H]21 [Formula 41*],230,–,–,possessing antihypercholesterolemic activity
CC[C@H](C)C(=O)O[C@H]1CCC=C2C=C[C@H](C)[C@H](CCC(=O)C[C@@H](O)CC(=O)O)[C@H]21 [Formula 53],16,–,–,possessing antihypercholesterolemic activity
"CC[C@H](C)C(=O)O[C@H]1CCC=C2C=C[C@H](C)[C@H](COC(=O)C[C@@H](O)CC(=O)O)[C@H]21 [Formula 63*, (1S,2S,8S,8aR)-1-[(S)-(3-Hydroxy-4-carboxybutyryl)oxymethyl]-2-methyl-8-[(S)-(2methylbutyryl)oxy]-1,2,6,7,8a-hexahydronaphthalene]",300,–,–,possessing antihypercholesterolemic activity

# — patent US4950775A, “Antihypercholesterolemic compounds and synthesis thereof” (University of California, priority 1985, dated 1990)
